Tests used:
[1] = tested on: cervical cancer cell line Hela; assay: Soft agar colony formation assay; assay type: cell-based, human
Description: Measuring the ability of cells to grow in soft agar has been popularly believed as the gold standard assay for cellular transformation in vitro. In the Soft Agar Assay, cells grow from single cells to cell colonies in a semi-solid agar solution that keeps them away from the solid surface and allows growth in an anchorage-independent way.
The anchorage-independent growth of cells is one of the hallmarks of cancer cells. Normal epithelial cells are supported by basement membranes that provide survival and proliferative signals while undergo a type of apoptosis called anoikis when lose their attachment to the extracellular matrix. Cancer cells, in contrast, evade detachment-induced apoptosis, leading to uncontrolled proliferation and metastasis. The Soft Agar Colony Formation Assay allows testing of the therapeutic efficacy of compounds against anchorage-independent 3D growth of cancer cells in vin. The assay was performed in 6-well plates with two layers of agar. For the first, 0.75% agar in DMEM medium was melted in a microwave oven and poured to form a bottom layer. Once solidified, 10-100K cells in 1 ml of DMEM containing 0.35% agar was added to form the top layer, which was later covered with 0.5 ml of DMEM. Cell culture medium was changed once every two days until colonies were ready to photograph. We test the antitumor activity of select compounds in soft agar colony formation assays. […] The suppression of growth of these three cancer cell lines in 3D culture is consistent with the potent impact of these compounds on cellular proliferation in 2D culture.

[2] = tested on: DU145; assay: MTT assay of cellular proliferation; assay type: cell-based; conditions: Homo sapiens, DU-145, 50% inhibition of cellular proliferation
Procedure, shortened: (§1)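 MTT viability readout, formazan OD 570 nm after 3-4 h dye incubation. Cells seeded 15-24 h to 20-30% confluence, dosed 1 nM-30 μM. DMEM/5% FBS, 37 °C, 5% CO2. EC50 = concentration giving 50% proliferation inhibition.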

[3] = tested on: Calu-6; assay: MTT assay of cellular proliferation; assay type: cell-based; conditions: Homo sapiens; Calu-6, MTT, 50% inhibition of cellular proliferation
Procedure, shortened: as §1

[4] = tested on: A549; assay: MTT assay of cellular proliferation; assay type: cell-based; conditions: Homo sapiens, 50% inhibition of cellular proliferation
Procedure, shortened: as §1

[5] = tested on: SW480; assay: MTT assay of cellular proliferation; assay type: cell-based; conditions: Homo sapiens, 50% inhibition of cellular proliferation
Procedure, shortened: as §1

[6] = tested on: DU145; assay: MECP in cancer cell line; assay type: cell-based, human
Protocol: (§2) Six lung cancer cell lines (NCI-H23, NCI-H460, NCI-H596, NCI-H2170, Calu-6 and A549), two colon cancer cell lines (HCT116 and SW460), one breast cancer cell line MDA-MB-231, one gastric cancer cell line NCI-N87, one prostate cancer cell line DU145, one cervical cancer cell line Hela, and one glioblastoma cell line T98G were obtained from ATCC. The T2 HCC cell line was derived from a mouse liver cancer model initiated by a transgene of MYC. All cell lines were cultured in DMEM (Gibco, Cleveland, TN, USA) supplemented with 5% fetal bovine serum (Gibco), penicillin (100 U/mL)—streptomycin (100 μg/mL) (Gibco, Cat. No. 15140-122), 2 mM L-glutamine (Gibco, 200 mM solution, Cat. No. 25030081), and 1 mM sodium pyruvate (Gibco, 100 mM solution, Cat. No. 11360070) at 37° C. in a humidified incubator that was maintained at 5% CO2.
(§3) We have previously developed a mechanism-informed phenotypic screening assay to identify novel antimitotic agents. Equipped with a prior understanding of the versatile functions of the chromosomal passenger protein (CPP) complex in orchestrating karyokinesis and cytokinesis, the screening assay is to score for phenotypes typically seen when the CPP complex is disabled. Specifically, the parameters for a positive hit are a temporary elevation of mitotic index (MI) at 24 hours of drug treatment and an accumulation of polyploid cells at 48 hours of drug treatment, indicative of mitotic arrest and cytokinetic failure respectively. These parameters exclude compounds that elicit only a prolonged arrest of cells in mitosis, a phenotype typically provoked by spindle toxins. The screening procedure is briefly summarized here. RPEMYC^H2B-GFP cells engineered to express a Histone 2B-EGFP fusion protein were passaged as batches of 96-well plates, 18-24 hours before exposure to the chemical compounds of the present disclosure at concentrations from 1 nM to 30 μM. At 24, 48 or 72 hours after initiation of treatment, cells were analyzed for either an arrest in mitosis or a change in DNA content by GE IN-Cell Analyzer 2000. As set forth in Table 2 below, a value of greater than or equal to 1 nM and less than or equal to 1.0 μM is marked “A”; a value greater than 1.00 μM and less than or equal to 10.0 μM is marked “B”; a value greater than 10.0 μM and less than or equal to 30.0 μM is marked “C”; and a value greater than 30.0 μM is marked “D.”

[7] = tested on: Calu-6; assay: MECP in cancer cell line; assay type: cell-based, human
Protocol: as §2, §3

[8] = tested on: NCI-H2170; assay: MECP in cancer cell line; assay type: cell-based, human
Protocol: as §2, §3

[9] = tested on: NCI-N87; assay: MECP in cancer cell line; assay type: cell-based; conditions: Homo sapiens
Procedure, shortened: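 DMEM, 5% FBS, 37 °C, 5% CO2; dose range 1 nM–30 μM; endpoints MI (24 h), polyploidy (48 h), 72 h DNA content by imaging; categorical A–D output.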

Row | Compound | anchorage-independent growth in soft agar [1] | EC50 [2] | EC50 [3] | EC50 [4] | EC50 [5] | MECP [6] | MECP [7] | MECP [8] | minimal effective concentration [9]
1 | COc1cc(OC)cc(Oc2ccnc3ccccc23)c1 [Compound 7, 4-(3,5-dimethoxyphenoxy)quinoline] | effectively suppressed the anchorage-independent growth |  |  |  |  |  |  |  | 
2 | COC(=O)c1cc(OC)cc(Oc2ncnc3cc(OC)c(OC)cc23)c1 [Compound 29] |  | 1 to 1000 nM | 1 to 1000 nM | > 30000 nM | 1000 to 10000 nM | B (a value greater than 1.00 M and less than or equal to 10.0 μM) | A (a value of greater than or equal to 1 nM and less than or equal to 1.0 μM) | A (a value of greater than or equal to 1 nM and less than or equal to 1.0 μM) | 0.001 to 1 µM
3 | COC(=O)c1cc(OC)cc(Oc2ncnc3cc[nH]c23)c1 [Compound 34, methyl 3-((5H-pyrrolo[3,2-d]pyrimidin-4-yl)oxy)-5-methoxybenzoate] |  | 1 to 1000 nM | 1 to 1000 nM | > 30000 nM | 1000 to 10000 nM | A (a value of greater than or equal to 1 nM and less than or equal to 1.0 μM) | A (a value of greater than or equal to 1 nM and less than or equal to 1.0 μM) | A (a value of greater than or equal to 1 nM and less than or equal to 1.0 μM) | 0.001 to 1 µM
4 | COC(=O)c1cc(Oc2ncnc3cc[nH]c23)cc(C(=O)OC)c1 [Compound 36, dimethyl 5-((5H-pyrrolo[3,2-d]pyrimidin-4-yl)oxy)isophthalate] | effectively suppressed the anchorage-independent growth | 1 to 1000 nM | 1 to 1000 nM | > 30000 nM |  | A (a value of greater than or equal to 1 nM and less than or equal to 1.0 μM) | A (a value of greater than or equal to 1 nM and less than or equal to 1.0 μM) | A (a value of greater than or equal to 1 nM and less than or equal to 1.0 μM) | 0.001 to 1 µM
5 | COC(=O)c1cc(OC)cc(Oc2ncnc3ccsc23)c1 [Compound 37, methyl 3-methoxy-5-(thieno[3,2-d]pyrimidin-4-yloxy)benzoate] |  | 1 to 1000 nM | 1 to 1000 nM | > 30000 nM | 1 to 1000 nM | A (a value of greater than or equal to 1 nM and less than or equal to 1.0 μM) | A (a value of greater than or equal to 1 nM and less than or equal to 1.0 μM) | A (a value of greater than or equal to 1 nM and less than or equal to 1.0 μM) | 0.001 to 1 µM
6 | COC(=O)c1cc(Oc2ncnc3ccsc23)cc(C(=O)OC)c1 [Compound 39, dimethyl 5-(thieno[3,2-d]pyrimidin-4-yloxy)isophthalate] | effectively suppressed the anchorage-independent growth | 1 to 1000 nM | 1 to 1000 nM | > 30000 nM |  | A (a value of greater than or equal to 1 nM and less than or equal to 1.0 μM) | A (a value of greater than or equal to 1 nM and less than or equal to 1.0 μM) | A (a value of greater than or equal to 1 nM and less than or equal to 1.0 μM) | 0.001 to 1 µM

Source: US20240239806A1, “COMPOUNDS, COMPOSITIONS AND METHODS OF TREATING DISORDERS” (Chengdu Anticancer Bioscience, Ltd., priority 2021, published 2024)
